Read-outs that look alike come from different tables or passages of the source.
What was measured:
human recombinant HDAC1 = target: T1, human recombinant HDAC1 (Homo sapiens, UniProt Q13547); assay: HDAC1 enzyme activity inhibition (HDAC Fluorimetric Drug Discovery Kit); type: biochemical; conditions: read-out: HDAC1
T1 construct: purchased Enzo Life Science, Inc. BML-SE456
How it was run: (§1)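 Compounds in 5-fold dilution series were incubated with […] enzyme and 10 μM substrate at 30° C for 60 minutes. Fluor de Lys Developer II was then added for 30 minutes to stop the reaction and develop the fluorescent signal.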

[1] = system: hippocampal neurons from a Sprague-Dawley (SD) rat fetus; assay: Effect of HDAC6-specific inhibitor on axonal transport of mitochondria in amyloid-beta treated neurons; type: cell-based; conditions: transport velocity of mitochondria in neuronal axon after normalization; vehicle = 100%, amyloid beta treatment group = 0%; compound treatment for three hours
How it was run: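 Rat E17-18 hippocampal neurons exposed to amyloid-beta fragments […]; after 24 h (day 8 in vitro) compound added for 3 h, mitochondria stained with MitoTracker Red CMXRos. Confocal imaging every 1 s for 1 min gave per-mitochondrion velocity, normalized vehicle = 100%, amyloid-beta = 0%.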

human recombinant HDAC6 = target: T2, human recombinant HDAC6 (Homo sapiens, UniProt Q9UBN7); assay: HDAC6 enzyme activity inhibition (HDAC Fluorimetric Drug Discovery Kit); type: biochemical
T2 construct: purchased Calbiochem Inc. 382180
T2 sequence (Q9UBN7 1-1215): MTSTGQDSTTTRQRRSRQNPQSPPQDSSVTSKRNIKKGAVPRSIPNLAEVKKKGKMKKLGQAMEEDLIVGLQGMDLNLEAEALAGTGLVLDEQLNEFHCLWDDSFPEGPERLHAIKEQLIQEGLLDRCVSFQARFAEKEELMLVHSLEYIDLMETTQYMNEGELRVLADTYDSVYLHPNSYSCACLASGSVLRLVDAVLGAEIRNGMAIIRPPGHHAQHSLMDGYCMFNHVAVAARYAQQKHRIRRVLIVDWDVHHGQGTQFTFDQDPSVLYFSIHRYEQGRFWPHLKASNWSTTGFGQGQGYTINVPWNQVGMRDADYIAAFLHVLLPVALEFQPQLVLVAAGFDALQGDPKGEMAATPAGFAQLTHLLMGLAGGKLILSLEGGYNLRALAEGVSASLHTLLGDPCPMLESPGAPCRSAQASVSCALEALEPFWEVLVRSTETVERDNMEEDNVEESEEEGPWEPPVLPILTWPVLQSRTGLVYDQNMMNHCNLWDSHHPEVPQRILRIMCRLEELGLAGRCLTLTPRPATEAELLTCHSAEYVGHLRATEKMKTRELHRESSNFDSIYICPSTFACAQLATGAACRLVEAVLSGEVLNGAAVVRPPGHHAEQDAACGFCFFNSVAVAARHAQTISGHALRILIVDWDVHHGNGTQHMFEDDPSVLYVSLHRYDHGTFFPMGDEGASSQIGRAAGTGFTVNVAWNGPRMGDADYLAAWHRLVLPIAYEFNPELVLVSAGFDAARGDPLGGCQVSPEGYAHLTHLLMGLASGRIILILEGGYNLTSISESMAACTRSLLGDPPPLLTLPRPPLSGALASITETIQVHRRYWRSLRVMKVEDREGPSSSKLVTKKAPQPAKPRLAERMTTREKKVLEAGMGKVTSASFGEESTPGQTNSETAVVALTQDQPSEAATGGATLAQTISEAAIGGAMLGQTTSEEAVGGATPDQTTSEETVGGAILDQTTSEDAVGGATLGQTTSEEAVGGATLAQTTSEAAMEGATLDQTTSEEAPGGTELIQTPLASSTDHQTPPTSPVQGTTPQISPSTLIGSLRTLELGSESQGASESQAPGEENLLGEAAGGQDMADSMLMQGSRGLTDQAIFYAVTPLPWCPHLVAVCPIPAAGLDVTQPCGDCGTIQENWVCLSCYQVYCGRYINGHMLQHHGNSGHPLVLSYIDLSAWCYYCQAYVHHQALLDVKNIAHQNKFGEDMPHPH
How it was run: as §1

[2] = human recombinant HDAC1, IC50 calculated with GraphPad Prism
[3] = human recombinant HDAC6, IC50 calculated with GraphPad Prism
[4] = human recombinant HDAC1, Fluor de Lys substrate, 30° C. 60 minutes
[5] = human recombinant HDAC6, same protocol as HDAC1

T1 sequence (Q13547 whole entry): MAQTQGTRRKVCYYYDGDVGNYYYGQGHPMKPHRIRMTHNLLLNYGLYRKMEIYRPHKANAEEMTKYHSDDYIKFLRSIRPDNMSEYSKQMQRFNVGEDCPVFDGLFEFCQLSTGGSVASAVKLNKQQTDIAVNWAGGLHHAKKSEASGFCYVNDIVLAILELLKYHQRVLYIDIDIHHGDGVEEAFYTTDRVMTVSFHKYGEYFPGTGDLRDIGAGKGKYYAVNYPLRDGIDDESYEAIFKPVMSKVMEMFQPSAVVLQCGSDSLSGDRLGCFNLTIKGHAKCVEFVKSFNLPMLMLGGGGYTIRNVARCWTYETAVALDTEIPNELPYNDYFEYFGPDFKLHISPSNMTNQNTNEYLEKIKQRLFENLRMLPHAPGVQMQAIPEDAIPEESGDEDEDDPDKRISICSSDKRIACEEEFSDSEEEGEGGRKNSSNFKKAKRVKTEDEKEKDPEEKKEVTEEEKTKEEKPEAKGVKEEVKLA

| SMILES | IC50 (human recombinant HDAC1; [2]) | HDAC6 selectivity (fold) (human recombinant HDAC6; HDAC1 IC50 / HDAC6 IC50) | IC50 (human recombinant HDAC6; [3]) | IC50 (human recombinant HDAC1; [4]) | HDAC6 selectivity (fold) (human recombinant HDAC6; HDAC6 over HDAC1) | IC50 (human recombinant HDAC6; [5]) | Velocity distribution (%) [1] |
| --- | --- | --- | --- | --- | --- | --- | --- |
| O=C(Nc1cccc(-c2cn(Cc3ccc(-c4nnc(C(F)F)o4)cc3F)nn2)c1)C(F)(F)F [Compound 3777, N-(3-(1-(4-(5-(difluoromethyl)-1,3,4-oxadiazol-2-yl)-2-fluorobenzyl)-1H-1,2,3-triazol-4-yl)phenyl)-2,2,2-trifluoroacetamide] | > 50000 nM | 2222 fold | 22.5 nM |  |  |  | * (*, 0%˜50%) |
| Fc1cc(-c2nnc(C(F)F)o2)cnc1Cn1cc(-c2ccc(CN3CCC3)s2)nn1 [Compound 18309, 2-(6-((4-(5-(azetidin-1-ylmethyl)thiophen-2-yl)-1H-1,2,3-triazol-1-yl)methyl)-5-fluoropyridin-3-yl)-5-(difluoromethyl)-1,3,4-oxadiazole] |  |  |  | > 50000 nM | 1160 fold | 43.1 nM | ** (**, 50%˜100%) |
| CCN1CCN(c2cccc(-c3cn(Cc4ccc(-c5nnc(C(F)F)o5)cc4F)nn3)c2)CC1 [Compound 4373, 2-(difluoromethyl)-5-(4-((4-(3-(4-ethylpiperazin-1-yl)phenyl)-1H-1,2,3-triazol-1-yl)methyl)-3-fluorophenyl)-1,3,4-oxadiazole] | > 50000 nM | 335 fold | 14.9 nM |  |  |  | *** (***, >100%) |
| Fc1cc(-c2nnc(C(F)F)o2)ccc1Cn1cc(-c2cccc(N3CCN(C4COC4)CC3)c2)nn1 [Compound 4375, 2-(difluoromethyl)-5-(3-fluoro-4-((4-(3-(4-(oxetan-3-yl)piperazin-1-yl)phenyl)-1H-1,2,3-triazol-1-yl)methyl)phenyl)-1,3,4-oxadiazole] | > 50000 nM | 1428 fold | 35 nM |  |  |  | * (*, 0%˜50%) |
| FC(F)c1nnc(-c2ccc(Cn3cc(-c4ccc5cn[nH]c5c4)nn3)cc2)o1 [Compound 4341, 2-(4-((4-(1H-indazol-6-yl)-1H-1,2,3-triazol-1-yl)methyl)phenyl)-5-(difluoromethyl)-1,3,4-oxadiazole] | > 50000 nM | 1222 fold | 40.9 nM |  |  |  | ** (**, 50%˜100%) |
| CN1CCN(Cc2c[nH]c3cc(-c4cn(Cc5ccc(-c6nnc(C(F)F)o6)cn5)nn4)ccc23)CC1 [Compound 3986, 2-(difluoromethyl)-5-(6-((4-(3-((4-methylpiperazin-1-yl)methyl)-1H-indol-6-yl)-1H-1,2,3-triazol-1-yl)methyl)pyridin-3-yl)-1,3,4-oxadiazole] | > 50000 nM | 6756 fold | 7.4 nM |  |  |  | *** (***, >100%) |
| Fc1cc(-c2nnc(C(F)F)o2)ccc1Cn1cc(-c2ccc3c(c2)CN(C2CCC2)CC3)nn1 [Compound 4366, 2-(4-((4-(2-cyclobutyl-1,2,3,4-tetrahydroisoquinolin-7-yl)-1H-1,2,3-triazol-1-yl)methyl)-3-fluorophenyl)-5-(difluoromethyl)-1,3,4-oxadiazole] | > 50000 nM | 1358 fold | 36.8 nM |  |  |  | *** (***, >100%) |
| Fc1cc(-c2nnc(C(F)F)o2)ccc1Cn1cc(-c2ccc(CN3CCCC3)cn2)nn1 [Compound 17533, 2-(difluoromethyl)-5-(3-fluoro-4-((4-(5-(pyrrolidin-1-ylmethyl)pyridin-2-yl)-1H-1,2,3-triazol-1-yl)methyl)phenyl)-1,3,4-oxadiazole] |  |  |  | > 50000 nM | 2272 fold | 22 nM | * (*, 0%˜50%) |

Further lines, with some results ahead:

| IC50 (human recombinant HDAC1; [2]) | HDAC6 selectivity (fold) (human recombinant HDAC6; HDAC1 IC50 / HDAC6 IC50) | IC50 (human recombinant HDAC6; [3]) | IC50 (human recombinant HDAC1; [4]) | HDAC6 selectivity (fold) (human recombinant HDAC6; HDAC6 over HDAC1) | IC50 (human recombinant HDAC6; [5]) | SMILES | Velocity distribution (%) [1] |
| --- | --- | --- | --- | --- | --- | --- | --- |
| > 50000 nM | 2092 fold | 23.9 nM |  |  |  | Cc1cc2ccc(-c3cn(Cc4ccc(-c5nnc(C(F)F)o5)cn4)nn3)cc2[nH]1 [Compound 4287, 2-(difluoromethyl)-5-(6-((4-(2-methyl-1H-indol-6-yl)-1H-1,2,3-triazol-1-yl)methyl)pyridin-3-yl)-1,3,4-oxadiazole] | *** (***, >100%) |
| > 50000 nM | 1424 fold | 35.1 nM |  |  |  | Cc1ccc(-c2cn(Cc3ccc(-c4nnc(C(F)F)o4)cn3)nn2)cn1 [Compound 3925, 2-(difluoromethyl)-5-(6-((4-(6-methylpyridin-3-yl)-1H-1,2,3-triazol-1-yl)methyl)pyridin-3-yl)-1,3,4-oxadiazole] | *** (***, >100%) |
| > 50000 nM | 4629 fold | 10.8 nM |  |  |  | CN(C)Cc1c[nH]c2cc(-c3cn(Cc4ccc(-c5nnc(C(F)F)o5)cn4)nn3)ccc12 [Compound 3962, 1-(6-(1-((5-(5-(difluoromethyl)-1,3,4-oxadiazol-2-yl)pyridin-2-yl)methyl)-1H-1,2,3-triazol-4-yl)-1H-indol-3-yl)-N,N-dimethylmethanamine] | *** (***, >100%) |
| > 50000 nM | 1259 fold | 39.7 nM |  |  |  | Fc1cccc(-c2cn(Cc3ccc(-c4nnc(C(F)F)o4)cn3)nn2)c1 [Compound 3854, 2-(difluoromethyl)-5-(6-((4-(3-fluorophenyl)-1H-1,2,3-triazol-1-yl)methyl)pyridin-3-yl)-1,3,4-oxadiazole] | *** (***, >100%) |
| > 50000 nM | 1118 fold | 44.7 nM |  |  |  | O=C(c1cccc(-c2cn(Cc3ccc(-c4nnc(C(F)F)o4)cn3)nn2)c1)N1CCC1 [Compound 3886, Azetidin-1-yl(3-(1-((5-(5-(difluoromethyl)-1,3,4-oxadiazol-2-yl)pyridin-2-yl)methyl)-1H-1,2,3-triazol-4-yl)phenyl)methanone] | * (*, 0%˜50%) |
| > 50000 nM | 4464 fold | 11.2 nM |  |  |  | CC(C)(C)C(=O)Nc1cccc(-c2cn(Cc3ccc(-c4nnc(C(F)F)o4)cn3)nn2)c1 [Compound 3825, N-(3-(1-((5-(5-(difluoromethyl)-1,3,4-oxadiazol-2-yl)pyridin-2-yl)methyl)-1H-1,2,3-triazol-4-yl)phenyl)pivalamide] | *** (***, >100%) |
| > 50000 nM | 2252 fold | 22.2 nM |  |  |  | FC(F)c1nnc(-c2ccc(Cn3cc(-c4ccccc4)nn3)nc2)o1 [Compound 3736, 2-(difluoromethyl)-5-(6-((4-phenyl-1H-1,2,3-triazol-1-yl)methyl)pyridin-3-yl)-1,3,4-oxadiazole] | *** (***, >100%) |
| > 50000 nM | 4854 fold | 10.3 nM |  |  |  | FC(F)c1nnc(-c2ccc(Cn3cc(-c4ccc5[nH]ccc5c4)nn3)nc2)o1 [Compound 4072, 2-(6-((4-(1H-indol-5-yl)-1H-1,2,3-triazol-1-yl)methyl)pyridin-3-yl)-5-(difluoromethyl)-1,3,4-oxadiazole] | ** (**, 50%˜100%) |
| > 50000 nM | 1190 fold | 43.2 nM |  |  |  | Cn1ccc2ccc(-c3cn(Cc4ccc(-c5nnc(C(F)F)o5)cn4)nn3)cc21 [Compound 3914, 2-(difluoromethyl)-5-(6-((4-(1-methyl-1H-indol-6-yl)-1H-1,2,3-triazol-1-yl)methyl)pyridin-3-yl)-1,3,4-oxadiazole] | * (*, 0%˜50%) |

— patent US20230257372A1 (CHONG KUN DANG PHARMACEUTICAL CORP., priority 2020, published 2023)
